From US20200000756A1, “NEOSTIGMINE COMBINATION AND COMPOSITIONS” (priority 2017, published 2020)
Entries after “also recorded” stand apart in the source; their conditions may differ.

Assay: Phase I single-blind study: single oral doses of neostigmine bromide with or without a single oral dose of ondansetron hydrochloride dihydrate
Type: in vivo
Conditions: six human subjects
Method: The ability of the 5HT3-antagonists for preventing the gastro-intestinal adverse effects of orally administered neostigmine bromide in humans was tested.
A Phase I study was conducted in six human subjects receiving a single oral dose of neostigmine bromide with or without a single oral dose of ondansetron hydrochloride dihydrate, as a representative 5HT3-antagonist. The study was a single center, single-blind.
To be enrolled in the study, participants (aged 18 to 60 years of age) were required, to refrain from consuming xanthine, quinine and caffeine containing beverages, and to refrain from prolonged intensive physical exercise during the study conduct. […] The key criteria for exclusion of a subject from enrollment in the study were as follows:
any clinically relevant acute or chronic disease which could interfere with the subjects' safety during the trial, expose them to undue risk, or interfere with the study objectives; history or presence of gastrointestinal, hepatic, or renal disease or other condition known to interfere with the absorption, distribution, metabolism or excretion of drugs; history of substance abuse, known drug addiction, or positive test for drugs of abuse or alcohol; history of drug or other significant allergy; ECG changes including QT interval prolongation and congenital long QT syndrome. […]

Cc1nccn1CC1CCc2c(c3ccccc3n2C)C1=O (racemic) [ondansetron, (±) 1,2,3,9-tetrahydro-9-methyl-3-[(2-methyl-1H-imidazol-1-yl)methyl]-4H-carbazol-4-one]
neostigmine dose reached before second intolerable dose (FID-2) on co-administration of ondansetron (neostigmine dose escalated together with oral ondansetron hydrochloride dihydrate 10 mg (8 mg base)): enabled subjects to reach neostigmine doses as high as or higher than the recommended efficacious dose for the treatment of MG
gastro-intestinal AEs of neostigmine on co-administration of ondansetron (single oral ondansetron hydrochloride dihydrate 10 mg (equivalent to 8 mg ondansetron base) with oral neostigmine bromide at the first intolerable dose and above): attenuated gastro-intestinal AEs reported with neostigmine alone; also recorded: prevented the occurrence of gastro-intestinal AEs
